Data on three compounds can be found in PMC9019904, “AD Informer Set: Chemical tools to facilitate Alzheimer's disease drug discovery” (Alzheimer's & Dementia : Translational Research & Clinical …, 2022).

SMILES strings stand for the structures. ≈ marks a conversion by molar mass, not a printed value. Read-outs that look alike come from different tables or passages of the source.

In general, kinetic solubility refers to the concentration staying in solution when a stock, usually in DMSO, is diluted into the medium.

One data set has as its system cellular system. As to conditions: cited from earlier work.
Another data set in a line: physchem. As to conditions: pH 7.4, aqueous buffer, kinetic from dmso stock.
In data set [1] the test system is protein product expressed by the gene target. As to conditions: cited from earlier work.
Data set [2] concerns HMC3 (human microglia) cell line. Description: pHrodo-myelin phagocytosis/cell viability high content imaging assay: phagocytosis signal. The data set is classed as cell-based. As to conditions: HMC3 cells, 10 μM. The method in brief:
(§1)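 Mouse BV2 and human HMC3 microglia given pHrodo-myelin; phagocytosis and cell viability imaged together by high content imaging about 22 hours after myelin addition. Three measurements extracted, including intensity increase and decrease marking early and later apoptosis.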

The test system of data set [3] is BV2 (mouse microglia) cell line. Described as above. The data set is classed as cell-based. As to conditions: BV2 cells, 10 μM. In a few lines:
as §1

Data set [4] shares this test system. Description: pHrodo-myelin phagocytosis/cell viability high content imaging assay: viability (cell count, nuclear area, nuclear intensity). The settings on record: BV2 cells, 10 μM, cell count <70% control. The method in brief: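 Viability was read as total cell count per well by high-content imaging, with mean average nuclear intensity per cell profiling apoptosis (rise early, fall late). Compounds were given at 10 μM for 48 h, pHrodo-myelin being added for the final 20 h. Values are means of two points as % untreated control.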

Where [5] appears, read: published cellular activity at 10 μM.

Consider `CN(C)CCCN1c2ccccc2Sc2ccc(Cl)cc21` [Chlorpromazine], for which the “Reported as cell active (<10 μM)” value in the data set with cellular system is “N”. Further, the kinetic solubility in “physchem” worked out at 102 µM (≈ 32.6 µg/mL). Moreover, in data set [1], the “Reported on-target biochemical potency” value is reported as >1000 nM.

As to `c1cn2cc(-c3ccc4cn[nH]c4c3)nc(Nc3ccc(N4CCOCC4)cc3)c2n1` [Entospletinib (GS-9973)], in the data set on cellular system (setting [5]), the “Reported as cell active (<10 μM)” value is reported as “Y (Published data supports that the compound is active in a cellular system when dosed at 10 μM (Y/N))”. Further, the kinetic solubility in the data set “physchem” worked out at 0.5 µM (≈ 0.206 µg/mL). The “Reported on-target biochemical potency” value in data set [1] is on record as 7.7 nM. Also, in data set [2], the “Inhibition of human microglial phagocytosis at 10 μM (<70% control)” value is recorded as “Y (The compound was found to inhibit phagocytosis (response threshold: <70% control) when human immortalized microglial cells were dosed at 10 μM (Y: yes))”. In data set [3], the “Inhibition of mouse microglial phagocytosis at 10 μM (<70% control)” value is on record as “Y (The compound was found to inhibit phagocytosis (response threshold: <70% control) when murine immortalized microglial cells were dosed at 10 μM (Y: yes))”. Moreover, the “Mouse microglial cytotoxicity at 10 μM (<70% control)” value in data set [4] is on record as “Y (The compound was found to be cytotoxic (cell count threshold: <70% control) when murine immortalized microglial cells were dosed at 10 μM (Y: yes))”.

In the case of `CN(C)CC1CCOC1(c1ccccc1)c1ccccc1.Cl` (stereo not shown) [AN2/AVex-73 HCl (Blarcamesine)], the “Reported as cell active (<10 μM)” value in the data set with cellular system (setting [5]) is “Y (Published data supports that the compound is active in a cellular system when dosed at 10 μM (Y/N))”. In the data set “physchem”, the kinetic solubility stood at 174 µM. Further, the “Reported on-target biochemical potency (nM)” value in data set [1] (SIG-1R (genes listed: SIG-1R and CHRM2), ref PubMed 20829307, 29127580) is listed as “SIG-1R = 860 nM”. Besides, in data set [3], the “Stimulation of mouse microglial phagocytosis at 10 μM (>150% control)” value is recorded as “Y (The compound was found to stimulate phagocytosis (response threshold: >150% control) when murine immortalized microglial cells were dosed at 10 μM (Y: yes))”.
